These are literature values, as cited in patent US20210069213A1, “COMPOSITION AND METHOD OF TREATMENT FOR DRY A.M.D. (AGE RELATED MACULAR DEGENERATION)” (EYE CO PTY LTD, priority 2018, published 2021).

Data set [1] deals with T1, mineralocorticoid receptor (Homo sapiens, UniProt P08235).
T1 sequence (P08235 1-984): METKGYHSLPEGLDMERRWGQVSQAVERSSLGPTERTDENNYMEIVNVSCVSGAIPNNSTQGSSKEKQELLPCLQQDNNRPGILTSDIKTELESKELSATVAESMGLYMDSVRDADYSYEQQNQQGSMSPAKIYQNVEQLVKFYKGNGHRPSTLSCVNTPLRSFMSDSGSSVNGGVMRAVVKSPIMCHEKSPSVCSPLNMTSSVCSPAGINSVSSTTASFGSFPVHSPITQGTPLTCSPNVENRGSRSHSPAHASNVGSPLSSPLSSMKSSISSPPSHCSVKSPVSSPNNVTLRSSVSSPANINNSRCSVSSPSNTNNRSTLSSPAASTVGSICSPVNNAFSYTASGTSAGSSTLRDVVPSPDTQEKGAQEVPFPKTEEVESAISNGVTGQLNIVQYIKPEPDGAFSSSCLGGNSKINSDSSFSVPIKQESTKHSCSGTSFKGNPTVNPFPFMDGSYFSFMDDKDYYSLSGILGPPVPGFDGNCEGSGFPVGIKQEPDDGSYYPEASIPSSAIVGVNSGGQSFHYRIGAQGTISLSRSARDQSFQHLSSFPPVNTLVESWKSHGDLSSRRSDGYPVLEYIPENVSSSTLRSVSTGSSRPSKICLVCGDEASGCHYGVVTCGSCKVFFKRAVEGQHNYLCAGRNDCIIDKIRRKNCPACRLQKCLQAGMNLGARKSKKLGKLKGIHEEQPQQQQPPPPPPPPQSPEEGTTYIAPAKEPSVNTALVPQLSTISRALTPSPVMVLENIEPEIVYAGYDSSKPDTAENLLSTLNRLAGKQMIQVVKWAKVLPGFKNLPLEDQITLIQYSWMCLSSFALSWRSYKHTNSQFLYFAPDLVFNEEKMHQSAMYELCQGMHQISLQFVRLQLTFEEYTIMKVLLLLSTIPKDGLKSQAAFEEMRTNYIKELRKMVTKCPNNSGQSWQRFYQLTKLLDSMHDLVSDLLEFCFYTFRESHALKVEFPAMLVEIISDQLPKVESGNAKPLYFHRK
The conditions noted are these: Table 1; hydrocortisone (cortisol) = 1; cited from earlier work.

The target in data set [2] is T2, glucocorticoid receptor (Homo sapiens, UniProt P04150).
T2 sequence (P04150 1-777): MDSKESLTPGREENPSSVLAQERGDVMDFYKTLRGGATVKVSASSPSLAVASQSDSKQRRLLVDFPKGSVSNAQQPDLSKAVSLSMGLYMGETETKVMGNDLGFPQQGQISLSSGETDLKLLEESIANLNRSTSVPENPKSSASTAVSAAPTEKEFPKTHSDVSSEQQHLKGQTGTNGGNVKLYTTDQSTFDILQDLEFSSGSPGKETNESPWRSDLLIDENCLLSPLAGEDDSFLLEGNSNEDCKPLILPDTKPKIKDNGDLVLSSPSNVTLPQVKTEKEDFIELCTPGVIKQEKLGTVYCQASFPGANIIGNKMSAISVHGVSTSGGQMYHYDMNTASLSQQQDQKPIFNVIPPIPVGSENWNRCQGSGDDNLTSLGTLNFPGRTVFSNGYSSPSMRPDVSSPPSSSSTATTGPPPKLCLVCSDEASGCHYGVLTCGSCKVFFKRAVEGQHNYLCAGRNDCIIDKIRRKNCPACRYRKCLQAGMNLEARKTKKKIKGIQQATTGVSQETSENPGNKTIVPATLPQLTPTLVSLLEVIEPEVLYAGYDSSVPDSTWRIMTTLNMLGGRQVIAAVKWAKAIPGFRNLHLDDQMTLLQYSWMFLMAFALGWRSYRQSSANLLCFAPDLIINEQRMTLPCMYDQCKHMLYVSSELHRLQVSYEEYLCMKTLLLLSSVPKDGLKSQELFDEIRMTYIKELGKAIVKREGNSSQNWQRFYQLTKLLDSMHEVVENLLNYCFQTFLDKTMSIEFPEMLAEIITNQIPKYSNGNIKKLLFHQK
The conditions noted are these: cited from earlier work; for GR potency: Table 1, hydrocortisone (cortisol) = 1.

The subject of data set [3] is New Zealand albino rabbits. The settings on record: cited from earlier work.

As to `C[C@]12CCC(=O)C=C1CC[C@@H]1[C@@H]2[C@@H](O)C[C@]2(C=O)[C@@H](C(=O)CO)CC[C@@H]12` [Aldosterone], the MR potency in data set [1] is 200-1000. For the same molecule, the GR potency in data set [2] is recorded as 0.3.
For `C[C@H]1C[C@H]2[C@@H]3CCC4=CC(=O)C=C[C@]4(C)[C@@]3(Cl)[C@@H](O)C[C@]2(C)[C@@]1(O)C(=O)CO` [Beclometasone], in data set [2] (equals 14 mg oral prednisone once/day), the “GR potency, given as dose equivalence” value is listed as 8 puffs 4 times a day;.
In the case of `C[C@]12CCC(=O)C=C1CC[C@@H]1[C@@H]2C(=O)C[C@@]2(C)[C@H]1CC[C@]2(O)C(=O)CO` [Cortisone], in data set [1], the MR potency is recorded as 0.8. For the same molecule, the GR potency in data set [2] is 0.8.
Regarding `CC(=O)OCC(=O)[C@H]1CC[C@H]2[C@@H]3CCC4=CC(=O)CC[C@]4(C)[C@H]3CC[C@]12C` [Deoxycorticosterone acetate], in data set [1], the MR potency is reported as 20. The GR potency in data set [2] is 0.
Take `C[C@]12CCC(=O)C=C1CC[C@@H]1[C@@H]2[C@@H](O)C[C@@]2(C)[C@H]1CC[C@]2(O)C(=O)CO` [Hydrocortisone]: the MR potency in data set [1] is given as 1. Also, the GR potency in data set [2] is 1.
Regarding `C[C@]12C=CC(=O)C=C1CC[C@@H]1[C@@H]2[C@@H](O)C[C@@]2(C)[C@H]1CC[C@]2(O)C(=O)CO` [Prednisolone], the MR potency in data set [1] is reported as 0.8. Besides, in data set [2], the GR potency is 4.
`C[C@]12C=CC(=O)C=C1CC[C@@H]1[C@@H]2C(=O)C[C@@]2(C)[C@H]1CC[C@]2(O)C(=O)CO` [Prednisone]: the MR potency in data set [1] is 0.8.
In the case of `C[C@]12C=CC(=O)C=C1CC[C@H]1[C@@H]3C[C@@H](O)[C@](O)(C(=O)CO)[C@@]3(C)C[C@H](O)[C@@]12F` [Triamcinolone], the MR potency in data set [1] was 0. Moreover, the GR potency in data set [2] was 5.
In the case of `C[C@]12CCC(=O)C=C1CC[C@H]1[C@@H]3CC[C@](O)(C(=O)CO)[C@@]3(C)C[C@H](O)[C@@]12F` [fludrocortisone, 9-alpha fluorohydrocortisone], the “ERG change in the other groups” value in data set [3] (intravitreal 2 mg, 1 mg, 400 μg/0.1 ml, two weeks after injection) is listed as “no significant decrease in ERG”. For the same molecule, the “intravitreal (vitreous) haemorrhage” value in data set [3] (intravitreal 4 mg/0.1 mL) is “one eye of this group had a vitreous hemorrhage”. The ERG change result in data set [3] (intravitreal 4 mg/0.1 ml, two weeks after injection) was “One eye in the 4 mg/0.1 ml fludrocortisone group exhibited significant decreases in ERG”. Also, the “signs of retinal toxicity on slit-lamp examination, indirect ophthalmoscopy, or light microscopy” value in data set [3] (rabbit, in vivo) was “no signs of retinal toxicity”.
